{
  "source": "patent US12194024B2",
  "about": "“Pharmaceutical composition of MDM2 inhibitor and use thereof for preventing and/or treating disease” (ASCENTAGE PHARMA (SUZHOU) CO., LTD., priority 2019, dated 2025)",
  "key": {"MOLM-13 cells": {"system": "MOLM-13 cells", "assay": "Expression of proteins in treated MOLM-13 cells", "type": "cell-based, human", "details": "for γ-H2AX expression (DNA damage): MOLM-13 cells", "text": "Therefore, we evaluate the protein changes involving these identified signaling pathways. […] DEC and AZA are low methylation drugs inducing low DNA methylation in cells by inhibiting the function of methyltransferase I (DNMT1). Many studies indicate that DNMT1 forms a complex with UHRF1 and HDAC1 proteins in tumor cells, which binds and inhibits the expression of various […] (such as P16INK4A, P14ARF and P21) promoters, and promotes tumor growth. Cytarabine is a pyrimidine nucleoside analogue, which induces DNA damage, further activates ATM/ATR-P53-P21 signal cascades, inhibits DNA synthesis in cells and interferes with cell proliferation.\nBased on above evidences, we further detect the regulating effect of treatment with compound 2 in combination with low methylation drugs DEC and AZA or drug Ara-C on P53, demethylation marker protein DNMT1 and common target protein P21, and the expression of apoptosis marker protein, lytic PARP-1. […] RG-7388 is introduced as the comparison of present experiment. […] DNA damage further activates P53 and P21.\nB-actin is used for confirming that the loaded proteins are the same. […] Its results represent three independent results."}, "[1]": {"system": "human OCI-AML-3 AML xenograft tumor", "assay": "Subcutaneous OCI-AML-3 AML mouse xenograft tumor model", "type": "in vivo, NOD SCID mice", "details": "Compound 2 50 mg/kg orally q2d, Azacitidine 2 mg/kg i.v., Decitabine 1 mg/kg i.v.; for Relative tumor volume (RTV, Mean ± SEM): d15, vehicle 16.5 ± 4.1", "protocol": "For subcutaneous model, OCI-AML-3 cells (1×10^6) are injected subcutaneously into the right side of the abdomen of 6- to 8-week-old mice. About 10 days after the cell inoculation, the mice are randomly divided into groups based on the primary tumor size achieving about 100-150 mm^3 of average tumor volume.\nThe tumor diameter is measured twice using a vernier caliper each week. The computational formula of the tumor volume (TV) is: TV=a×b^2/2. In the computational formula, a and b represent the length and width of the tumor measurement respectively. The computational formula of the relative tumor volume (RTV) is: RTV=VtN1. In the computational formula, V1 is the tumor volume when being grouped and administered, and Vt is the tumor volume when being measured at a certain day after the administration.\nThe tumor remission rate (%) is derived by dividing the number of SD (Stable Disease), PR (Partial response) and CR (Complete response) appearing in the tumor bearing mice after treatment by the total number of mice in the group×100%.\nThe synergistic analysis uses the following formula (reference can be made to Gould S E et al., Translational value of mouse models in oncology drug development, Nature medicine, 2015 21, 431-439): synergistic factor=((A/C)×(B/C))/(AB/C); A=RTV value of the A drug alone group; B=RTV value of the B drug alone group; C=RTV value of the vehicle control group, AB=RTV value of the AB combined group (Clarke R., Issues in experimental design and endpoint analysis in the study of experimental cytotoxic agents in vivo in breast cancer and other models[J], Breast Cancer Research & Treatment, 1997, 46 (2-3):255-278).\nFor subcutaneous model, OCI-AML-3 cells (1×10^6) are injected subcutaneously into the right side of the abdomen of 6- to 8-week-old mice. About 10 days after the cell inoculation, the mice are randomly divided into groups based on the primary tumor size achieving about 100-150 mm^3 of average tumor volume. Compound 2 is administered alone or in combination (50 mg/kg, is taken orally, every other day for 15 days) and Aza (2 mg/kg, intravenous injection each day for 7 days) or Dec (1 mg/kg, intravenous injection each day for 7 days). The tumor volume is measured twice using a vernier caliper each week and is represented by following formula in mm^3: V=0.5a×b^2; in the formula, a and b are the long diameter and short diameter of the tumor respectively. […] RTV=VtN1; wherein V1 and Vt are the average tumor volume on the first day (day 1) in the treatment, and the average tumor volume of a certain time point (day t) respectively.\nAzacitidine is administered following 2 mg/kg, caudal vein injection, qd×7d, drug withdrawal 7 days, then qd×2 day regimens for seven days (corresponding to the number 68 regimen in table 7)."}, "[2]": {"system": "human MOLM-13 (AML) xenograft tumor", "assay": "Systemic MOLM-13 AML mouse xenograft model", "type": "in vivo, NOD SCID mice", "details": "Compound 2 30 mg/kg q2d 21 days, Azacitidine 1.5 mg/kg qd seven days", "text": "The comparison among three or more groups uses one-way ANOVA. If the F value has a significant difference, multiple comparisons should be carried out after the ANOVA analysis. All data analysis uses SPSS 18.0. Prism (the sixth version) is used for graphing. Attune N×T flow cytometer (Thermo Fisher Scientific Inc.) is used for analyzing tumor infiltrating lymphocytes. Data acquisition and analysis use Analyst Software 1.6.3 work station (AB sciex, Ontario, Canada). For MOLM-13 systemic model, the death date of the last mouse is used for analyzing the median total survival and generating the Kaplan-Meier curve. Logarithmic rank test and Bonferroni multiple test are used for comparing the survival curves of different treatment groups.\nFor systemic AML model, six- to eight-week-old female NOD SCID mice are pretreated with cyclophosphamide (150 mg/kg, intraperitoneally) continuously for two days. Then the MOLM-13 systemic AML xenograft model is established by inoculating 1×10^7 cells into the caudal vein intravenously.\nFor systemic AML model, the six- to eight-week-old female NOD SCID mice are pretreated with cyclophosphamide (150 mg/kg, intraperitoneally) continuously for two days. Then the MOLM-13 systemic AML xenograft model is established by inoculating 1×10^7 cells into the caudal vein intravenously. Cells grow 3 days, then are randomly divided into groups for treatment of a single drug or drugs in combination using a carrier, compound 2 (50 mg/kg, is taken orally each day for 7 days), and Aza (1.5 mg/kg, intravenous injection each day for 7 days). In the treatment process and after the treatment is completed, the mice are monitored for the occurrence of hind leg paresis (HLP) or the abdominal swelling caused by disease progression, and a body weight loss >20%.\nA systemic MOLM-13 mouse xenograft model is established, and the anti-leukemia effect of compound 2 following the administration regimen of 80 mg/kg dosage, orally (po), and once every two days (q2d) is evaluated in the model (corresponding to the number 57 regimen in table 7). The experiment has two groups, and 15 animals in each group, in one group, 5 animals are used for the analysis of the proportion of CD45+ AML cells, and the remaining 10 animals are used for recording the living condition of the mice. 18 days after the cell inoculation, according to the experimental regimen, 5 animals are selected randomly from each group, bone marrow and spleen are collected, the proportion of human CD45+ AML cells in bone marrow and spleen is analyzed using flow cytometry to evaluate the disease burden of animals.\nSystemic tumor model is established by inoculating MOLM-13 tumor cells through caudal vein, the administration starts on the third day after the cell inoculation, and the day of the administration is defined as the first day. Compound 2 is administered following 30 mg/kg, q2d regimens for 21 days. Azacitidine is administered following 1.5 mg/kg, qd regimens for seven days (corresponding to the number 81 regimen in table 7). […]"}, "[3]": {"details": "MOLM-13, DEC 100 nM, AZA 3 μM, 48 hours"}},
  "data": [
    {"smiles": "Nc1ncn([C@@H]2O[C@H](CO)[C@@H](O)[C@H]2O)c(=O)n1", "note": "[Azacitidine]", "values": [
      {"measurement": "expression of DNMT1", "setting": "MOLM-13 cells; [3]", "value": "almost completely eliminates DNMT1"},
      {"measurement": "γ-H2AX expression (DNA damage)", "setting": "MOLM-13 cells", "value": "increased expression of γ-H2AX"},
      {"measurement": "T/C value (%) (d15)", "setting": "[1]", "value": 56.6, "unit": "%"},
      {"measurement": "Relative tumor volume (RTV, Mean ± SEM)", "setting": "[1]", "value": "9.3 ± 3.2"},
      {"measurement": "Median survival", "setting": "[2]; vehicle 16 days", "value": 24, "unit": "days"},
      {"measurement": "Prolonged survival", "setting": "[2]; versus vehicle", "value": 8, "unit": "days"}
    ]},
    {"smiles": "Nc1ccn([C@@H]2O[C@H](CO)[C@@H](O)[C@@H]2O)c(=O)n1", "note": "[Cytarabine]", "values": [
      {"measurement": "expression of P53 and P21 proteins", "setting": "MOLM-13 cells; MOLM-13, compound 2 40 nM, RG-7388 40 nM, DEC 100 nM, AZA 3 μM, 48 hours", "value": "significant up-regulation effect on P21"},
      {"measurement": "γ-H2AX expression (DNA damage)", "setting": "MOLM-13 cells", "value": "increased expression of γ-H2AX"}
    ]},
    {"smiles": "Nc1ncn([C@H]2C[C@H](O)[C@@H](CO)O2)c(=O)n1", "note": "[Decitabine]", "values": [
      {"measurement": "expression of DNMT1", "setting": "MOLM-13 cells; [3]", "value": "almost completely eliminates DNMT1"},
      {"measurement": "γ-H2AX expression (DNA damage)", "setting": "MOLM-13 cells", "value": "increased expression of γ-H2AX"},
      {"measurement": "T/C value (%) (d15)", "setting": "[1]", "value": 64.9, "unit": "%"},
      {"measurement": "Relative tumor volume (RTV, Mean ± SEM)", "setting": "[1]", "value": "10.7 ± 1.7"}
    ]}
  ]
}
